Blank lines part the entries; values can stand above or below the compound they belong to.
Key:
[1] = molecular target: purified calf thymus cyclophilin (Bos taurus, UniProt P62935); assay: LH-20 binding assay with purified cyclophilin; details: for Bound (cpm), specifically bound: cyclophilin, 100 ng, 6.0 nM labeled compound
[2] = tested on: IL-2 secretion in JURKAT cells; assay: Inhibition of IL-2 secretion in JURKAT cells stimulated with PMA and ionomycin (ELISA); assay type: cell-based, human
Experimental: Inhibition of IL-2 secretion in JURKAT cells stimulated with PMA and ionomycin by FK-506 and [^3 H]dihydro FK-506. JURKAT cells (equivalent to those available from the ATCC, supra) were cultured in RPMI 1640 media (Cellgro, Mediatech, Wash. D.C.) containing 1% Pen/Strep (Gibco), 1 mM Glutamine and 10% heat-inactivated fetal calf serum (Hazleton). For assay of IL-2 secretion by JURKAT cells, cells were cultured for 16 hr. in 96-well microtiter plates (Costar) at […] cells/ml in the above media containing 10 ng/ml of PMA (Sigma) and 5 μM ionomycin (Calbiochem) along with the concentrations of FK-506 or [^3 H]FK-506 indicated.

JURKAT cytosol [3] = assay: LH-20 binding assay with JURKAT cytosol; set-up: species or system human; details: for Bound (cpm), specifically bound: 0.5 nM labeled compound; for effect of heating on binding to JURKAT cytosol (in words): heated cytosol
JURKAT cytosol [4] = molecular target: T1, JURKAT cytosol (Homo sapiens, UniProt P62942); assay: LH-20 binding assay with JURKAT cytosol
T1 construct: endogenous in cells; host or cells: JURKAT (human T-cell line), crude cytosol
T1 sequence (P62942 2-108): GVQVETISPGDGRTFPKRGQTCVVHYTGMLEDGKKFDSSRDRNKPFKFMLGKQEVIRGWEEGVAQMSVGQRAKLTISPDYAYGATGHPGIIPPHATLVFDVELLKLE

[5] = tested on: cyclophilin PPIase activity; details: concentration of 1 uM
Experimental: (§1) Briefly, the PPIase assay measures the "cis" to "trans" isomerization of the proline-alanine peptide bond in the peptide, N-succinyl-Ala-Ala-Pro-Phe-p-nitroanilide. When in the "trans" form, the peptide is readily cleaved by chymotrypsin and the appearance of p-nitroanilide can be quantitated spectrophotometrically at 405 nm.
(§2) After 1.0 minutes, 30 ul of 2.0 mg/ml chymotrypsin (Sigma) in 100 mM Tris-HCl, pH 7.8 was added. After brief mixing, the absorbance was monitored at 405 nm in either a Perkin-Elmer 4B or Beckman DU 68 spectrophotometer. Absorbance measurements were taken at 3 or 5 second intervals for 4 minutes. A plot of Abs405 [steady state]--Abs405[time=t] versus time was made on semi-log paper. From the straight line, the time constant for Abs405 [steady state]--Abs405 [time=t] to fall by l/e was calculated. The reciprocal of this constant yields the rate constant k.

[6] = molecular target: HCB protein PPIase activity (Homo sapiens, UniProt P62942); assay: PPIase assay of HCB protein (N-succinyl-Ala-Ala-Pro-Phe-p-nitroanilide, chymotrypsin coupled)
HCB protein PPIase activity, sequence (P62942 whole entry): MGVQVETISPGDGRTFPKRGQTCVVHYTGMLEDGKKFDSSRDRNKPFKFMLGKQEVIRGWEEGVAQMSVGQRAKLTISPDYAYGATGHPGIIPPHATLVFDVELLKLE
Experimental: as §1, §2

[7] = tested on: low molecular weight cytosolic component; assay: Direct binding of [3H]FK-506 to JURKAT cytosol, complex by HPLC gel filtration, competition with unlabeled compound; set-up: species or system human; details: 200 fold molar excess of unlabeled compound; 16 nM [3H]FK-506, 200 μg cytosol protein
Experimental: A cell-free extract was prepared from JURKAT cells by lysing […] cells in 0.5 ml of 10 mM Tris-HCl, pH 7.5 containing 1 mM MgCl as described in the legend for FIG. 3.

[8] = JURKAT cytosol 40 μg heated 56 C., 15 min.

purified calf thymus cyclophilin, sequence (P62935 whole entry): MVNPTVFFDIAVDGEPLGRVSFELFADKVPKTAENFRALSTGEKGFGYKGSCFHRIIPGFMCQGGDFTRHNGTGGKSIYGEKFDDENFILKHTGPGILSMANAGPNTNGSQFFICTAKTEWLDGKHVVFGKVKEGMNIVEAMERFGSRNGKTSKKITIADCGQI

SMILES: [3H]CC([3H])C[C@@H]1/C=C(\C)C[C@H](C)C[C@H](OC)[C@H]2O[C@@](O)(C(=O)C(=O)N3CCCC[C@H]3C(=O)O[C@H](/C(C)=C/[C@@H]3CC[C@@H](O)[C@H](OC)C3)[C@H](C)[C@@H](O)CC1=O)[C@H](C)C[C@@H]2OC (some centres unmarked) [[^3 H]FK-506, [^3 H]-dihydro FK-506]
specific binding to purified calf thymus cyclophilin (in words) ([1]; LH-20 assay): could not detect specific binding
Bound (cpm), specifically bound [1]: 0 cpm
IC50 ([2]; Homo sapiens, Jurkat, 16 h, read-out: concentration of inhibiting IL-2 secretion in JURKAT): 1.1 nM
inhibition of IL-2 secretion in JURKAT cells (in words) ([2]; PMA and ionomycin): potent inhibitor
potency as inhibitor of IL-2 secretion, times less potent than the parent compound ([2]; relative to FK-506, JURKAT cells, PMA and ionomycin): 5 times
Bound (cpm), specifically bound (JURKAT cytosol [3]; [8]): 15,315 cpm
Bound (cpm), specifically bound (JURKAT cytosol [3]; JURKAT cytosol, 40 μg): 13,585 cpm
effect of heating on binding to JURKAT cytosol (in words) (JURKAT cytosol [3]): heat stable
Kd (JURKAT cytosol [4]): 4 nM

SMILES: C=CC[C@@H]1/C=C(\C)C[C@H](C)C[C@H](OC)[C@H]2O[C@@](O)(C(=O)C(=O)N3CCCC[C@H]3C(=O)O[C@H](/C(C)=C/[C@@H]3CC[C@@H](O)[C@H](OC)C3)[C@H](C)[C@@H](O)CC1=O)[C@H](C)C[C@@H]2OC [FK-506]
inhibition of cyclophilin PPIase activity (in words) [5]: no effect
inhibition of HCB protein PPIase activity (in words) [6]: specifically inhibited
inhibition of the formation of the [^3 H]FK-506 complex [7]: 90%

inhibition of HCB protein PPIase activity (in words) [6]: specifically inhibits
SMILES: CCC[C@@H]1/C=C(\C)C[C@H](C)C[C@H](OC)[C@H]2O[C@@](O)(C(=O)C(=O)N3CCCC[C@H]3C(=O)O[C@H](/C(C)=C/[C@@H]3CC[C@@H](O)[C@H](OC)C3)[C@H](C)[C@@H](O)CC1=O)[C@H](C)C[C@@H]2OC [Dihydro-FK-506]

SMILES: [3H]C(C)C([3H])C[C@@H](C)[C@@H](O)[C@H]1C(=O)N[C@@H](CC)C(=O)N(C)CC(=O)N(C)[C@@H](CC(C)C)C(=O)N[C@@H](C(C)C)C(=O)N(C)[C@@H](CC(C)C)C(=O)N[C@@H](C)C(=O)N[C@H](C)C(=O)N(C)[C@@H](CC(C)C)C(=O)N(C)[C@@H](CC(C)C)C(=O)N(C)[C@@H](C(C)C)C(=O)N1C (some centres unmarked) [[^3 H]CsA, [^3 H]-dihydro CsA]
Bound (cpm), specifically bound [1]: 20,988 cpm
Bound (cpm), specifically bound (JURKAT cytosol [3]; [8]): 0 cpm
Bound (cpm), specifically bound (JURKAT cytosol [3]; JURKAT cytosol, 40 μg): 5,988 cpm
effect of heating on binding to JURKAT cytosol (in words) (JURKAT cytosol [3]): completely aborgated

Source: patent US5196352A, “New FK-506 cytosolic binding protein” (Merck & Co., Inc., priority 1991, dated 1993)
